Reference: patent publication US9034865B2, “Pyrido [4,3-B] indole and pyrido [3,4-B] indole derivatives and methods of use” (Medivation Technologies, Inc., priority 2010, dated 2015)

Tests used:
[1] = molecular target: T1, human recombinant serotonin (5-Hydroxytryptamine) 5-HT2A receptor (Homo sapiens, UniProt P28223); experiment: Serotonin 5-HT2A radioligand binding ([3H]Ketanserin); settings: compound at 0.1 μM; read-out: Percentage inhibition of ligand binding, Serotonin (0.1 μM) 5-HT2A
T1 construct: expressed in transfected cells; host or cells: CHO-K1
Description: To evaluate in radioligand binding assays the activity of compounds of the invention, human recombinant serotonin (5-Hydroxytryptamine) 5-HT2A receptor expressed in Chinese hamster ovary (CHO) K1 cells (Bonhaus, D. et al, Br. J. Pharmacol. 115:622, 1995; Saucier, C. et al, J. Neurochem. 68:1998, 1997) in a 50 mM Tris-HCl buffer, pH 7.4, was used. Compounds of the invention were incubated with 0.5 nM [^3H]Ketanserin for 60 min at 25° C. Non-specific binding was estimated in the presence of 1 μM Mianserin. Receptor proteins were filtered and washed, the filters were then counted to determine [^3H]Ketanserin specifically bound. Compounds were screened at 1 μM or lower, using 1% DMSO as vehicle. Biochemical assay results are presented as the percent inhibition of specific binding in Table 4.

[2] = molecular target: T2, human recombinant serotonin (5-Hydroxytryptamine) 5-HT7 receptor (Homo sapiens, UniProt P34969); experiment: Serotonin 5-HT7 radioligand binding ([3H]LSD); settings: compound at 0.1 μM; read-out: Percentage inhibition of ligand binding, Serotonin (0.1 μM) 5-HT7
T2 construct: expressed in transfected cells; host or cells: CHO
Description: To evaluate in radioligand binding assays the activity of compounds of the invention, human recombinant serotonin (5-Hydroxytryptamine) 5-HT7 receptor expressed in Chinese hamster ovary (CHO) cells (Roth, B. et al, J. Pharmacol. Exp. Ther. 268:1403, 1994; Shen, Y. et al, J. Biol. Chem. 268:18200, 1993) in a modified Tris-HCl buffer (50 mM Tris-HCl, pH 7.4, 10 mM MgCl2, 0.5 mM EDTA) was used. Compounds of invention were incubated with 5.5 nM [^3H] Lysergic acid diethylamide (LSD) for 2 h at 25° C. Non-specific binding was estimated in the presence of 10 μM Serotonin (5-HT). Receptor proteins were filtered and washed, the filters were then counted to determine [^3H]LSD specifically bound. Compounds were screened at 1 μM or lower, using 1% DMSO as vehicle. Biochemical assay results are presented as the percent inhibition of specific binding in Table 4.

[3] = molecular target: T3, human recombinant adrenergic α2C receptor (Homo sapiens, UniProt P18825); experiment: Adrenergic α2C radioligand binding ([3H]MK-912); settings: compound at 0.1 μM; read-out: Percentage inhibition of ligand binding, Adrenergic (0.1 μM) α2C
T3 construct: expressed in transfected cells; host or cells: insect Sf9 cells
T3 sequence (P18825 1-462): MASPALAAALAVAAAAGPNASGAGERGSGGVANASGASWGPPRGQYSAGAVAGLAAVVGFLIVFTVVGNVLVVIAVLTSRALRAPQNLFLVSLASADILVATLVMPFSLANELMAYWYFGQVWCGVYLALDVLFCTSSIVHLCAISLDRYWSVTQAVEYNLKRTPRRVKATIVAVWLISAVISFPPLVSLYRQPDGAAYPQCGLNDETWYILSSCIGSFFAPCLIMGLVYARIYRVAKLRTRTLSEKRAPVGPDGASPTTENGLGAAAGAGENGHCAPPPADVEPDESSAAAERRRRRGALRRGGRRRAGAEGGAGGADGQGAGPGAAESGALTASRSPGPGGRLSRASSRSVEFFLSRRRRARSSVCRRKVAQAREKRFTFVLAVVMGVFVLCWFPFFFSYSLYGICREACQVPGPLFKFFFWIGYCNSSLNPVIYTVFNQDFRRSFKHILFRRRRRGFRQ
Description: To evaluate in radioligand binding assays the activity of compounds of the invention, human recombinant adrenergic α2C receptor expressed in insect Sf9 cells (Uhlen, S. et al, J. Pharmacol. Exp. Ther. 271:1558, 1994) in a modified Tris-HCl buffer (50 mM Tris-HCl, pH 7.4, 12.5 mM MgCl2, 2 mM EDTA) was used. Compounds of the invention were incubated with 1 nM [^3H]MK-912 for 60 min at 25° C. Non-specific binding was estimated in the presence of 10 μM WB-4101. Receptor proteins were filtered and washed, the filters were then counted to determine [^3H]MK-912 specifically bound. Compounds were screened at 1 μM or lower, using 1% DMSO as vehicle. Biochemical assay results are presented as the percent inhibition of specific binding in Table 3.

[4] = molecular target: T4, rat adrenergic α1A receptor (Rattus norvegicus, UniProt P43140); experiment: Adrenergic α1A radioligand binding ([3H]Prazosin); settings: compound at 0.1 μM; read-out: Percentage inhibition of ligand binding, Adrenergic (0.1 μM) α1A
T4 construct: rat adrenergic α1A receptor obtained from Wistar Rat submaxillary glands; from tissue; host or cells: Wistar rat submaxillary glands
T4 sequence (P43140 1-466): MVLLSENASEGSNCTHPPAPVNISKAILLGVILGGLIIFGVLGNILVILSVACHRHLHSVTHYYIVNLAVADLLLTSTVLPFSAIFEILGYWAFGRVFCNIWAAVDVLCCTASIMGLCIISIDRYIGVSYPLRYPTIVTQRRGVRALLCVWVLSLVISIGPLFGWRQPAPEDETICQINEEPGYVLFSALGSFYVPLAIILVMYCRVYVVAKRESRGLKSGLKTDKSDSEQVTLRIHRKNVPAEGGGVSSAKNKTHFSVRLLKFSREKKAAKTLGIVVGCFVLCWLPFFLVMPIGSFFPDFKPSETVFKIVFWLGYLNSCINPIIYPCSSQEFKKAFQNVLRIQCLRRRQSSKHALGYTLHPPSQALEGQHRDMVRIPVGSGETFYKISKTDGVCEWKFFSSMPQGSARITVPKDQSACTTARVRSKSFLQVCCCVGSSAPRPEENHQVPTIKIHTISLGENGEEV
Description: To evaluate in radioligand binding assays the activity of compounds of the invention, rat adrenergic α1A receptor obtained from Wistar Rat submaxillary glands (Michel, A. et al, Br. J. Pharmacol. 98:883, 1989) in a modified Tris-HCl buffer (50 mM Tris-HCl buffer, pH 7.4, 0.5 mM EDTA) was used. Compounds of the invention were incubated with 0.25 nM [^3H]Prazosin for 60 min at 25° C. Non-specific binding was estimated in the presence of 10 μM phentolamine. Receptor proteins were filtered and washed, the filters were then counted to determine [^3H]Prazosin specifically bound. Compounds of the invention were screened at 1 μM or lower, using 1% DMSO as vehicle. Biochemical assay results are presented as the percent inhibition of specific binding in Table 3.

T1 sequence (P28223 whole entry): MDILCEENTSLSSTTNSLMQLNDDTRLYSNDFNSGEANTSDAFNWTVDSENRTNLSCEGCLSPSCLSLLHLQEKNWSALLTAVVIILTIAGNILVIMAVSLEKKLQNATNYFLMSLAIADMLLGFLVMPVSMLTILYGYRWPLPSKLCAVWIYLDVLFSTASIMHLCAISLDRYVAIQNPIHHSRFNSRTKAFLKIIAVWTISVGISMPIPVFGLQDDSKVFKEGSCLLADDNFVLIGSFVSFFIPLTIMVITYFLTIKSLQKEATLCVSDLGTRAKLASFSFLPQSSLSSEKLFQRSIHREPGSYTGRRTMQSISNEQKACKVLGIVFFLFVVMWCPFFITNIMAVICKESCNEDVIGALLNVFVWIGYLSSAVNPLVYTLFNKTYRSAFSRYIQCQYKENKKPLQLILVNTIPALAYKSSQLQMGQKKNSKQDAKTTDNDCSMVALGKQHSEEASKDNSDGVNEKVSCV
T2 sequence (P34969 whole entry): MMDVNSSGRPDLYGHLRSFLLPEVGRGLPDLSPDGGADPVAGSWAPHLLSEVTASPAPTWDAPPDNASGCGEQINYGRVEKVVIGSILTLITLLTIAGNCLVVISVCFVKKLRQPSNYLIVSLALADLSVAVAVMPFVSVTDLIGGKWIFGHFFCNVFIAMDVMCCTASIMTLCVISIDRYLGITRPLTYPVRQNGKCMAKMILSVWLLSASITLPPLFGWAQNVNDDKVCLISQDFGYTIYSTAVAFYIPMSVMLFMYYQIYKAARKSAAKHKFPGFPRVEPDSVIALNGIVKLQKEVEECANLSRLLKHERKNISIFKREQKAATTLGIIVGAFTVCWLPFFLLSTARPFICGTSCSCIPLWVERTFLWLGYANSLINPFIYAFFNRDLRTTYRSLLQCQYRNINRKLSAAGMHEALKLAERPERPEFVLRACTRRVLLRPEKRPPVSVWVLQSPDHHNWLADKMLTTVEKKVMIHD

With `Cc1ccc(C#Cc2cc(Cl)cc3c4c(n(C)c23)CCN(C)C4)cn1` [Compound 18] the inhibition at 0.1 µM [1] was 80%, the inhibition at 0.1 µM [2] was 8% and the inhibition at 0.1 µM [3] was 0%. It also gave an inhibition at 0.1 µM [4] of 14%.
Molecule `Cc1cc(C#Cc2ccncc2)c2c(c1)c1c(n2C)CCN(C)C1` [Compound 17] has an inhibition at 0.1 µM [1] of 24%, an inhibition at 0.1 µM [2] of 23% and an inhibition at 0.1 µM [3] of 3%. It also gave an inhibition at 0.1 µM [4] of -2%.
Work on `Cc1cc(/C=C/c2ccc(C)nc2)c2c(c1)c1c(n2C)CCN(C)C1` [Compound 14] yielded an inhibition at 0.1 µM [1] of -7%, an inhibition at 0.1 µM [2] of 13% and an inhibition at 0.1 µM [3] of 1%. For the same molecule, the inhibition at 0.1 µM [4] was -16%.
Molecule `Cc1cc(CCc2ccc(C)nc2)c2c(c1)c1c(n2C)CCN(C)C1` [Compound 13] has an inhibition at 0.1 µM [1] of 13%, an inhibition at 0.1 µM [2] of 16% and an inhibition at 0.1 µM [3] of 2%. For the same molecule, the inhibition at 0.1 µM [4] was 2%.
In the case of `C/C(=C\c1cc(C)cc2c3c(n(C)c12)CCN(C)C3)c1ccncc1` [Compound 11], the inhibition at 0.1 µM [1] is reported as 13%, the inhibition at 0.1 µM [2] is reported as -17% and the inhibition at 0.1 µM [3] is reported as 12%. It also gave an inhibition at 0.1 µM [4] of -14%.
`Cc1cc(C#Cc2nccs2)c2[nH]c3c(c2c1)CN(C)CC3` [Compound 16] was tested, and the inhibition at 0.1 µM [1] was 21%, the inhibition at 0.1 µM [2] was 35% and the inhibition at 0.1 µM [3] was 5%. It also gave an inhibition at 0.1 µM [4] of -1%.
In the case of `Cc1cc(C#Cc2cccs2)c2[nH]c3c(c2c1)CN(C)CC3` [Compound 8], the inhibition at 0.1 µM [1] is reported as 27%, the inhibition at 0.1 µM [2] is reported as 6% and the inhibition at 0.1 µM [3] is reported as 7%. The inhibition at 0.1 µM [4] was -5%.
For `Cc1cc(-c2ccc(F)cc2)c2c(c1)c1c(n2C)CCN(C)C1` [Compound 7], the inhibition at 0.1 µM [1] was 6%, the inhibition at 0.1 µM [2] was 12% and the inhibition at 0.1 µM [3] was 8%. For the same molecule, the inhibition at 0.1 µM [4] was 1%.
For `Cc1cc(C#Cc2ccc(C)nc2)c2c(c1)c1c(n2C)CCN(C)C1` [Compound 12, 2,3,4,5-tetrahydro-2,5,8-trimethyl-6-(2-(6-methylpyridin-3-yl)ethynyl)-1H-pyrido[4,3-b]indole], the inhibition at 0.1 µM [1] was 23%, the inhibition at 0.1 µM [2] was 5% and the inhibition at 0.1 µM [3] was 3%. The inhibition at 0.1 µM [4] was -12%.
`Cc1cc(-c2ccncc2)c2c(c1)c1c(n2C)CCN(C)C1` [Compound 9] showed an inhibition at 0.1 µM [1] of 5%, an inhibition at 0.1 µM [2] of 26% and an inhibition at 0.1 µM [3] of 1%. For the same molecule, the inhibition at 0.1 µM [4] was 4%.
Work on `C/C(=C\c1cc(C)cc2c3c(n(C)c12)CCN(C)C3)c1ccc(C)nc1` [Compound 15] yielded an inhibition at 0.1 µM [1] of 1%, an inhibition at 0.1 µM [2] of 36% and an inhibition at 0.1 µM [3] of -14%. The inhibition at 0.1 µM [4] was 3%.
Molecule `C#Cc1cc(C)cc2c3c(n(C)c12)CCN(C)C3` [Compound 10, 6-Ethynyl-2,3,4,5-tetrahydro-2,5,8-trimethyl-1H-pyrido[4,3-b]indole] has an inhibition at 0.1 µM [1] of 37%, an inhibition at 0.1 µM [2] of 14% and an inhibition at 0.1 µM [3] of 36%. For the same molecule, the inhibition at 0.1 µM [4] was 6%.
